Like-named read-outs stand apart in the source and are kept apart here.
Biological target: human ATP synthase (Homo sapiens, UniProt P00846+P05496)
Assay: biochemical
Format: biochemical
Details: Human Mito
[1] = 3rd exp (12-20-18), BDQ in DMSO, Bedaquiline 0.05 μM, 60 min
[2] = 4th exp (12-12-28), repeated point, Bedaquiline 5e-6 μM, 60 min
[3] = 4th exp (12-12-28), repeated point, Bedaquiline 5e-5 μM, 60 min

COc1nc2ccc(Br)cc2cc1[C@@H](c1ccccc1)[C@@](O)(CCN(C)C)c1cccc2ccccc12 [BDQ, Bedaquiline]
Cyanide sensitive (2nd exp (12-17-18), Bedaquiline 0.2 μM, 60 min): 5.1889 nmol/min/mg | activity at 0.2 µM (2nd exp (12-17-18), Bedaquiline 0.2 μM, 60 min, read-out: % activity): 59.9% | Cyanide sensitive (2nd exp (12-17-18), Bedaquiline 0.5 μM, 60 min): 5.024 nmol/min/mg | activity at 0.5 µM (2nd exp (12-17-18), Bedaquiline 0.5 μM, 60 min, read-out: % activity): 58% | Cyanide sensitive (2nd exp (12-17-18), Bedaquiline 0.65 μM, 60 min): 2.666 nmol/min/mg | activity at 0.65 µM (2nd exp (12-17-18), Bedaquiline 0.65 μM, 60 min, read-out: % activity): 30.8% | Cyanide sensitive (2nd exp (12-17-18), Bedaquiline 0.85 μM, 60 min): 2.868 nmol/min/mg | activity at 0.85 µM (2nd exp (12-17-18), Bedaquiline 0.85 μM, 60 min, read-out: % activity): 33.1% | Cyanide sensitive (2nd exp (12-17-18), Bedaquiline 2 μM, 60 min): 0.0982 nmol/min/mg | activity at 2 µM (2nd exp (12-17-18), Bedaquiline 2 μM, 60 min, read-out: % activity): 1.13% | Cyanide sensitive (2nd exp (12-17-18), Bedaquiline 5 μM, 60 min): -0.8746 nmol/min/mg | activity at 5 µM (2nd exp (12-17-18), Bedaquiline 5 μM, 60 min, read-out: % activity): -10.1% | activity at 0.005 µM (2 nd exp (18_12_17), BDQ 0.005 uM, read-out: Cyanide sensitive % activity): 43.8% | activity at 0.1 µM (2 nd exp (18_12_17), BDQ 0.1 uM, read-out: Cyanide sensitive % activity): 62% | activity at 0.2 µM (2 nd exp (18_12_17), BDQ 0.2 uM, read-out: Cyanide sensitive % activity): 59.9% | activity at 0.5 µM (2 nd exp (18_12_17), BDQ 0.5 uM, read-out: Cyanide sensitive % activity): 58% | activity at 0.65 µM (2 nd exp (18_12_17), BDQ 0.65 uM, read-out: Cyanide sensitive % activity): 30.8% | activity at 0.85 µM (2 nd exp (18_12_17), BDQ 0.85 uM, read-out: Cyanide sensitive % activity): 33.1% | activity at 2 µM (2 nd exp (18_12_17), BDQ 2 uM, read-out: Cyanide sensitive % activity): 1.13% | Cyanide sensitive (3rd exp (12-20-18), BDQ in DMSO, Bedaquiline 0.0005 μM, 60 min): 7.6746 nmol/min/mg | activity at 0.0005 µM (3rd exp (12-20-18), BDQ in DMSO, Bedaquiline 0.0005 μM, 60 min, read-out: % activity): 81.5% | Cyanide sensitive (3rd exp (12-20-18), BDQ in DMSO, Bedaquiline 0.005 μM, 60 min): 8.333 nmol/min/mg | activity at 0.005 µM (3rd exp (12-20-18), BDQ in DMSO, Bedaquiline 0.005 μM, 60 min, read-out: % activity): 88.5% | Cyanide sensitive [1]: 6.758 nmol/min/mg | activity at 0.05 µM [1]: 71.8% | Cyanide sensitive (3rd exp (12-20-18), BDQ in DMSO, Bedaquiline 0.1 μM, 60 min): 8.103 nmol/min/mg | activity at 0.1 µM (3rd exp (12-20-18), BDQ in DMSO, Bedaquiline 0.1 μM, 60 min, read-out: % activity): 86% | Cyanide sensitive (3rd exp (12-20-18), BDQ in DMSO, Bedaquiline 0.2 μM, 60 min): 5.599 nmol/min/mg | activity at 0.2 µM (3rd exp (12-20-18), BDQ in DMSO, Bedaquiline 0.2 μM, 60 min, read-out: % activity): 59.5% | Cyanide sensitive (3rd exp (12-20-18), BDQ in DMSO, Bedaquiline 0.5 μM, 60 min): 3.146 nmol/min/mg | activity at 0.5 µM (3rd exp (12-20-18), BDQ in DMSO, Bedaquiline 0.5 μM, 60 min, read-out: % activity): 33.4% | Cyanide sensitive (3rd exp (12-20-18), BDQ in DMSO, Bedaquiline 0.65 μM, 60 min): 3.762 nmol/min/mg | activity at 0.65 µM (3rd exp (12-20-18), BDQ in DMSO, Bedaquiline 0.65 μM, 60 min, read-out: % activity): 40% | Cyanide sensitive (3rd exp (12-20-18), BDQ in DMSO, Bedaquiline 0.85 μM, 60 min): 3.062 nmol/min/mg | activity at 0.85 µM (3rd exp (12-20-18), BDQ in DMSO, Bedaquiline 0.85 μM, 60 min, read-out: % activity): 32.5% | Cyanide sensitive (3rd exp (12-20-18), BDQ in DMSO, Bedaquiline 1 μM, 60 min): -0.07798 nmol/min/mg | activity at 1 µM (3rd exp (12-20-18), BDQ in DMSO, Bedaquiline 1 μM, 60 min, read-out: % activity): -0.828% | Cyanide sensitive (3rd exp (12-20-18), BDQ in DMSO, Bedaquiline 2 μM, 60 min): 0.1555 nmol/min/mg | activity at 2 µM (3rd exp (12-20-18), BDQ in DMSO, Bedaquiline 2 μM, 60 min, read-out: % activity): 1.65% | Cyanide sensitive (3rd exp (12-20-18), BDQ in DMSO, Bedaquiline 5 μM, 60 min): -0.3777 nmol/min/mg | activity at 5 µM (3rd exp (12-20-18), BDQ in DMSO, Bedaquiline 5 μM, 60 min, read-out: % activity): -4.01% | activity at 0.0005 µM (3rd exp (18_12_20), BDQ 0.0005 uM, read-out: Cyanide sensitive % activity): 81.5% | activity at 0.005 µM (3rd exp (18_12_20), BDQ 0.005 uM, read-out: Cyanide sensitive % activity): 88.5% | activity at 0.2 µM (3rd exp (18_12_20), BDQ 0.2 uM, read-out: Cyanide sensitive % activity): 59.5% | activity at 0.5 µM (3rd exp (18_12_20), BDQ 0.5 uM, read-out: Cyanide sensitive % activity): 33.4% | activity at 0.65 µM (3rd exp (18_12_20), BDQ 0.65 uM, read-out: Cyanide sensitive % activity): 40% | activity at 0.85 µM (3rd exp (18_12_20), BDQ 0.85 uM, read-out: Cyanide sensitive % activity): 32.5% | activity at 1 µM (3rd exp (18_12_20), BDQ 1 uM, read-out: Cyanide sensitive % activity): -0.84% | activity at 2 µM (3rd exp (18_12_20), BDQ 2 uM, read-out: Cyanide sensitive % activity): 1.68% | activity at 5 µM (3rd exp (18_12_20), BDQ 5 uM, read-out: Cyanide sensitive % activity): -4.13% | Cyanide sensitive (4th exp (12-12-28), BDQ in DMSO, Bedaquiline 5e-6 μM, 60 min): 6.055 nmol/min/mg | Cyanide sensitive (4th exp (12-12-28), BDQ in DMSO, Bedaquiline 5e-5 μM, 60 min): 5.641 nmol/min/mg | Cyanide sensitive (4th exp (12-12-28), BDQ in DMSO, Bedaquiline 0.0005 μM, 60 min): 4.664 nmol/min/mg | activity at 0.0005 µM (4th exp (12-12-28), BDQ in DMSO, Bedaquiline 0.0005 μM, 60 min, read-out: % activity): 52.7% | Cyanide sensitive (4th exp (12-12-28), BDQ in DMSO, Bedaquiline 0.005 μM, 60 min): 4.551 nmol/min/mg | activity at 0.005 µM (4th exp (12-12-28), BDQ in DMSO, Bedaquiline 0.005 μM, 60 min, read-out: % activity): 51.4% | Cyanide sensitive (4th exp (12-12-28), BDQ in DMSO, Bedaquiline 0.1 μM, 60 min): 6.3 nmol/min/mg | activity at 0.1 µM (4th exp (12-12-28), BDQ in DMSO, Bedaquiline 0.1 μM, 60 min, read-out: % activity): 71.2% | Cyanide sensitive (4th exp (12-12-28), BDQ in DMSO, Bedaquiline 0.2 μM, 60 min): 4.408 nmol/min/mg | activity at 0.2 µM (4th exp (12-12-28), BDQ in DMSO, Bedaquiline 0.2 μM, 60 min, read-out: % activity): 49.8% | Cyanide sensitive (4th exp (12-12-28), BDQ in DMSO, Bedaquiline 0.5 μM, 60 min): 4.526 nmol/min/mg | activity at 0.5 µM (4th exp (12-12-28), BDQ in DMSO, Bedaquiline 0.5 μM, 60 min, read-out: % activity): 51.2% | Cyanide sensitive (4th exp (12-12-28), BDQ in DMSO, Bedaquiline 0.65 μM, 60 min): 3.3225 nmol/min/mg | activity at 0.65 µM (4th exp (12-12-28), BDQ in DMSO, Bedaquiline 0.65 μM, 60 min, read-out: % activity): 37.6% | Cyanide sensitive (4th exp (12-12-28), BDQ in DMSO, Bedaquiline 1 μM, 60 min): 0.7592 nmol/min/mg | activity at 1 µM (4th exp (12-12-28), BDQ in DMSO, Bedaquiline 1 μM, 60 min, read-out: % activity): 8.58% | Cyanide sensitive (4th exp (12-12-28), BDQ in DMSO, Bedaquiline 2 μM, 60 min): 0.2448 nmol/min/mg | activity at 2 µM (4th exp (12-12-28), BDQ in DMSO, Bedaquiline 2 μM, 60 min, read-out: % activity): 2.77% | Cyanide sensitive (4th exp (12-12-28), BDQ in DMSO, Bedaquiline 5 μM, 60 min): -0.2191 nmol/min/mg | activity at 5 µM (4th exp (12-12-28), BDQ in DMSO, Bedaquiline 5 μM, 60 min, read-out: % activity): -2.48% | Cyanide sensitive (4th exp (12-12-28), BDQ in DMSO, Bedaquiline 10 μM, 60 min): -0.1822 nmol/min/mg | activity at 10 µM (4th exp (12-12-28), BDQ in DMSO, Bedaquiline 10 μM, 60 min, read-out: % activity): -2.06% | Repeted points [2]: 6.965 nmol/min/mg | Repeted points % activity [2]: 78.7332% | Repeted points [3]: 6.5997 nmol/min/mg | Repeted points % activity [3]: 74.6041% | Repeted points (4th exp (12-12-28), repeated point, Bedaquiline 1 μM, 60 min): 0.7668 nmol/min/mg | activity at 1 µM (4th exp (12-12-28), repeated point, Bedaquiline 1 μM, 60 min, read-out: Repeted points % activity): 8.67% | activity at 10 µM (4th exp (18_12_26) duplicate, BDQ 10 uM, read-out: Cyanide sensitive % activity): -2.1% | activity at 0.1 µM (4th exp (18_12_26), BDQ 0.1 uM, read-out: Cyanide sensitive % activity): 71.2% | activity at 0.2 µM (4th exp (18_12_26), BDQ 0.2 uM, read-out: Cyanide sensitive % activity): 49.8% | activity at 0.5 µM (4th exp (18_12_26), BDQ 0.5 uM, read-out: Cyanide sensitive % activity): 51.2% | activity at 0.65 µM (4th exp (18_12_26), BDQ 0.65 uM, read-out: Cyanide sensitive % activity): 37.6%
